Measured values published in article PMC5845353, “The selective cathepsin K inhibitor MIV-711 attenuates joint pathology in experimental animal models of osteoarthritis” (Journal of Translational Medicine, 2018).

Assays:
[1] = tested on: cartilage degradation biomarker CTX-II; assay: Urinary CTX-II (cartilage degradation biomarker) in ACLT rabbits; type: in vivo, rabbit
Protocol: Starting 1 week after sham operation or ACLT, animals were dosed daily for 7 weeks by oral gavage with either MIV-711 (synthesized by Medivir and given as a suspension in 1% Methocel A4C in water) or vehicle (1% Methocel A4C in water) at a dose volume of 4 mL/kg. The four treatment groups (n = 7 in each group) were: (1) sham + vehicle; (2) ACLT + vehicle; (3) ACLT + MIV-711, 30 µmol/kg (low dose) and (4) ACLT + MIV-711, 100 µmol/kg (high dose).
Urine was collected in the morning from all animals for biomarker measurements before surgery, before dosing on Day 1, Day 10 and during Week 4 and Week 7. The urine was stored frozen (− 70 to − 80 °C) until analysis.
In rabbits, conventional CTX-I assays to assess bone resorption cannot be used due to species differences. Instead, urinary helical peptide (HP-1) concentrations were measured in rabbits using the MicroVue Helical Peptide kit (Ref: 8022) from Quidel (San Diego, CA) according to the instructions supplied by the manufacturer. In dogs, urinary levels of C-terminal telopeptide of collagen type I (CTX-I) were measured using a commercially available kit (Urine BETA CrossLaps ELISA, Ref: AC-05F1, IDS Nordic Bioscience Diagnostics A/S). In rabbits and dogs, urinary concentrations of C-terminal telopeptide of collagen type II (CTX-II) were measured using the Urine CartiLaps EIA kit (Ref: AC-10F1) from Immunodiagnostics Systems (IDS, Herlev, Denmark) according to the instructions supplied by the manufacturer. In dogs, CTX-II levels were also measured in synovial fluid. Before ELISA analysis, 95 µL of synovial fluid was mixed with 5 µL of hyaluronidase (100 U/mL, Sigma, H-3884). The mixture was incubated overnight at 35 °C. The mixture was then used to measure CTX-II levels (Serum Pre-Clinical CartiLaps ELISA, Ref: AC-08F1, IDS Nordic Bioscience Diagnostics A/S). The creatinine levels in urine were determined at Swedish University of Agricultural Sciences (Uppsala, Sweden), using the enzymatic assay (Cat No. 8L24-01) on the Abbott system Architect c4000.

CTX-II = assay: Urinary CTX-II in dogs subjected to partial medial meniscectomy; type: in vivo; settings: dog, 30 µmol/kg
Protocol: Dogs subjected to partial medial meniscectomy received either 30 µmol/kg MIV-711 (synthesized by Medivir and given as a suspension in 1% Methocel A4C; n = 15) or vehicle (1% Methocel A4C; n = 15) by orogastric gavage once daily in the morning. […] Dosing started the day before surgery and lasted through Day 28, the day before necropsy. Each dog was fasted for at least 12 h before dosing and food were returned approximately 4 h following test article administration.
Urine samples were collected from the animals 1 to 3 days before surgery and treatment (baseline sample), 4 to 7 days after the start of treatment (Day 7 sample) and 26 to 28 days after treatment (Day 28 sample). Dogs were housed in metabolic cages overnight during urine collection. […]
In rabbits, conventional CTX-I assays to assess bone resorption cannot be used due to species differences. Instead, urinary helical peptide (HP-1) concentrations were measured in rabbits using the MicroVue Helical Peptide kit (Ref: 8022) from Quidel (San Diego, CA) according to the instructions supplied by the manufacturer. In dogs, urinary levels of C-terminal telopeptide of collagen type I (CTX-I) were measured using a commercially available kit (Urine BETA CrossLaps ELISA, Ref: AC-05F1, IDS Nordic Bioscience Diagnostics A/S). […] In dogs, CTX-II levels were also measured in synovial fluid. […]

**Q.** With `C#C[C@@H]1CN(C(=O)[C@H](CC(C)C)NC(=O)c2ccc(-c3nc(N4CCN(C)CC4)sc3F)cc2)[C@@H]2C(=O)CO[C@H]12` [MIV-711] as the compound, how does the “CTX-II levels decreased by up to, vs ACLT vehicle controls” value ([1]; ACLT rabbits, over doses 30 and 100 µmol/kg and time points) read?
**A.** up to 74%

**Q.** What about the “urinary CTX-II levels reduced by, vs ACLT rabbits treated with vehicle” value ([1]; after 4 weeks, 30 µmol/kg (p > 0.05)) of the same compound?
**A.** 38%

**Q.** What about the “urinary CTX-II levels reduced by, vs ACLT rabbits treated with vehicle” value ([1]; after 4 weeks, 100 µmol/kg) of the same compound?
**A.** 49%

**Q.** And the “urinary CTX-II levels reduced by, vs ACLT rabbits treated with vehicle” value ([1]; after 7 weeks, 30 µmol/kg (p > 0.05))?
**A.** 14%

**Q.** What about the “urinary CTX-II levels reduced by, vs ACLT rabbits treated with vehicle” value ([1]; after 7 weeks, 100 µmol/kg) of the same compound?
**A.** 52%

**Q.** And the “urinary CTX-II levels reduced by, vs ACLT rabbits treated with vehicle” value ([1]; after 10 days of dosing, 30 µmol/kg)?
**A.** 53%

**Q.** And the “urinary CTX-II levels reduced by, vs ACLT rabbits treated with vehicle” value ([1]; after 10 days of dosing, 100 µmol/kg)?
**A.** 74%

**Q.** What about the “urinary CTX-II levels reduced by” value (CTX-II; Day 7, vs. baseline) of the same compound?
**A.** 80%

**Q.** What about the “urinary CTX-II levels reduced by” value (CTX-II; Day 28, vs. baseline) of the same compound?
**A.** 80%
